From patent publication US8476265B2, “Compounds-801” (AstraZeneca AB, priority 2010, dated 2013)

Columns and labels:
[1] = target: T1, human muscarinic acetylcholine M3 receptor (Homo sapiens, UniProt P20309); assay: Muscarinic 3 receptor binding assay ([3H]NMS competition, SPA), single concentration 1 μM; conditions: 1 μM compound; % inhibition specific [3H]-NMS binding
T1 construct: expressed in transfected cells; host or cells: CHO-K1 (Chinese Hamster Ovary) cell membranes
Procedure, shortened: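 CHO-K1 membranes expressing human M3 on SPA beads, competition with 0.1 nM [3H]NMS (quarter Kd) in 20 mM HEPES pH 7.4, 5 mM MgCl2, 0.1% BSA, 1% DMSO; compound at 1 μM. 16 h at room temperature. Value is % inhibition of specific binding, non-specific defined with 1 μM atropine.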

Adrenergic β2 = target: T2, Adrenergic β2 (Homo sapiens, UniProt P07550); assay: Adrenergic β2 mediated cAMP production in H292 cells, single concentration 1 μM; type: cell-based; conditions: cAMP as percentage of the maximum response generated by 1E-07M formoterol; for percent of formoterol maximum response at 1 µM: NCI-H292, 1 μM compound, read-out: β2 % effect @1 uM
T2 construct: Adherent H292 cells are removed from tissue culture flasks by treatment with Accutase™ cell detachment solution; endogenous in cells; host or cells: H292 cells
T2 sequence (P07550 whole entry): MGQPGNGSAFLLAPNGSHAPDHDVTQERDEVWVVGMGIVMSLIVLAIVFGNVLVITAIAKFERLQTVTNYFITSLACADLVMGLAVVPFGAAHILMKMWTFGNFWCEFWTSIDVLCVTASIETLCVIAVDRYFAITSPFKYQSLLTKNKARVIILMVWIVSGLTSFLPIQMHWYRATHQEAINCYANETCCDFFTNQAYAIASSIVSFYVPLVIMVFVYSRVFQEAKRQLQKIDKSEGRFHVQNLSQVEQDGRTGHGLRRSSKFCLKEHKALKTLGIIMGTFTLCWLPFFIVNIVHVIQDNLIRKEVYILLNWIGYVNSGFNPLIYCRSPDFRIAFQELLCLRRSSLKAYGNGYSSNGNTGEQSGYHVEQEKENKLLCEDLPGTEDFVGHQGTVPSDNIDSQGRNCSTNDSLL
Procedure, shortened: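 H292 cells pretreated with rolipram (300 μM final) 10 min, then compound at 1 μM final, 1% DMSO, 60 min at room temperature in HBSS/10 mM HEPES pH 7.4/5 mM glucose. Lysate cAMP quantified by AlphaScreen against a standard curve, as % of maximal response to 1E-07M formoterol.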

T1 sequence (P20309 whole entry): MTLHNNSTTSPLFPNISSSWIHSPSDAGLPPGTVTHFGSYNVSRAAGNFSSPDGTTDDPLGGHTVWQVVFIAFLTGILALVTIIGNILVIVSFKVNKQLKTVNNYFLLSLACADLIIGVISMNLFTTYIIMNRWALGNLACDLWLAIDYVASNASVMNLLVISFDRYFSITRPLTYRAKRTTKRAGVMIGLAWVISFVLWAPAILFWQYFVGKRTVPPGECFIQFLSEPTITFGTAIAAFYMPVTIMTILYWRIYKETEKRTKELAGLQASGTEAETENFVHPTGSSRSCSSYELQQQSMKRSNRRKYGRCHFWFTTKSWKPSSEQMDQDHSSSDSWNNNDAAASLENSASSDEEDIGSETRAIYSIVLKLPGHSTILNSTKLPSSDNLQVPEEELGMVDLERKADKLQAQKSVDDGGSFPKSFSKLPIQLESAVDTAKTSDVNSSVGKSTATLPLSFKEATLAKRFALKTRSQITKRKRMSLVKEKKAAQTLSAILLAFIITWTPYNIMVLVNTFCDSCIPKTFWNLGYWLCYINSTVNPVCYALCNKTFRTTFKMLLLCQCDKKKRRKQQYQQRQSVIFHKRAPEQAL

With `O=C1COc2c(CCNCCN(C(=O)CCOCCc3cccc(CN4CCC5(CC4)CN(C(=O)[C@H](O)c4ccccc4)CCO5)c3)C3CCCCC3)ccc(O)c2N1` [Example 166, (R)-N-Cyclohexyl-3-(3-((4-(2-hydroxy-2-phenylacetyl)-1-oxa-4,9-diazaspiro[5.5]undecan-9-yl)methyl)phenethoxy)-N-(2-(2-(5-hydroxy-3-oxo-3,4-dihydro-2H-benzo[b][1,4]oxazin-8-yl)ethylamino)ethyl)propanamide] the inhibition at 1 µM [1] was 100% and the percent of formoterol maximum response at 1 µM (Adrenergic β2) was 96%.
In the case of `Cc1cc(C)n2nc(C(=O)N3CCOC4(CCN(Cc5cccc(CCOCCC(=O)N(CCNCCc6ccc(O)c7c6OCC(=O)N7)C6CCCCC6)c5)CC4)C3)cc2n1` [Example 142, N-Cyclohexyl-3-(3-((4-(5,7-dimethylpyrazolo[1,5-a]pyrimidine-2-carbonyl)-1-oxa-4,9-diazaspiro[5.5]undecan-9-yl)methyl)phenethoxy)-N-(2-(2-(5-hydroxy-3-oxo-3,4-dihydro-2H-benzo[b][1,4]oxazin-8-yl)ethylamino)ethyl)propanamide], the inhibition at 1 µM [1] is reported as 100% and the percent of formoterol maximum response at 1 µM (Adrenergic β2) is reported as 83%.
`O=C1COc2c(CCNCCN(C(=O)CCOCCc3cccc(CN4CCC5(CC4)CN(C(=O)CCCOCc4ccccc4)CCO5)c3)C3CCCCC3)ccc(O)c2N1` [Example 151, 3-(3-((4-(4-(Benzyloxy)butanoyl)-1-oxa-4,9-diazaspiro[5.5]undecan-9-yl)methyl)phenethoxy)-N-cyclohexyl-N-(2-(2-(5-hydroxy-3-oxo-3,4-dihydro-2H-benzo[b][1,4]oxazin-8-yl)ethylamino)ethyl)propanamide] showed an inhibition at 1 µM [1] of 97% and a percent of formoterol maximum response at 1 µM (Adrenergic β2) of 113%.
For `O=C1COc2c(CCNCCN(C(=O)CCOCCc3cccc(CN4CCC5(CC4)CN(C(=O)Cc4noc6ccccc46)CCO5)c3)C3CCCCC3)ccc(O)c2N1` [Example 124, 3-(3-((4-(2-(Benzo[d]isoxazol-3-yl)acetyl)-1-oxa-4,9-diazaspiro[5.5]undecan-9-yl)methyl)phenethoxy)-N-cyclohexyl-N-(2-(2-(5-hydroxy-3-oxo-3,4-dihydro-2H-benzo[b][1,4]oxazin-8-yl)ethylamino)ethyl)propanamide], the inhibition at 1 µM [1] was 100% and the percent of formoterol maximum response at 1 µM (Adrenergic β2) was 101%.
Work on `O=C1COc2c(CCNCCN(C(=O)CCOCCc3cccc(CN4CCC5(CC4)CN(C(=O)[C@@H](O)Cc4ccccc4)CCO5)c3)C3CCCCC3)ccc(O)c2N1` [Example 134, (S)-N-Cyclohexyl-N-(2-(2-(5-hydroxy-3-oxo-3,4-dihydro-2H-benzo[b][1,4]oxazin-8-yl)ethylamino)ethyl)-3-(3-((4-(2-hydroxy-3-phenylpropanoyl)-1-oxa-4,9-diazaspiro[5.5]undecan-9-yl)methyl)phenethoxy)propanamide] yielded an inhibition at 1 µM [1] of 97% and a percent of formoterol maximum response at 1 µM (Adrenergic β2) of 89%.
With `CC(C)(C)C(=O)N1CCOC2(CCN(Cc3cccc(CCOCCC(=O)N(CCNCCc4ccc(O)c5c4OCC(=O)N5)C4CCCCC4)c3)CC2)C1` [Example 155, N-Cyclohexyl-N-(2-(2-(5-hydroxy-3-oxo-3,4-dihydro-2H-benzo[b][1,4]oxazin-8-yl)ethylamino)ethyl)-3-(3-((4-pivaloyl-1-oxa-4,9-diazaspiro[5.5]undecan-9-yl)methyl)phenethoxy)propanamide] the inhibition at 1 µM [1] was 99% and the percent of formoterol maximum response at 1 µM (Adrenergic β2) was 93%.
With `O=C1COc2c(CCNCCN(C(=O)CCOCCc3cccc(CN4CCC5(CC4)CN(C(=O)CC4(O)CCCCCC4)CCO5)c3)C3CCCCC3)ccc(O)c2N1` [Example 148, N-Cyclohexyl-N-(2-(2-(5-hydroxy-3-oxo-3,4-dihydro-2H-benzo[b][1,4]oxazin-8-yl)ethylamino)ethyl)-3-(3-((4-(2-(l-hydroxycycloheptyl)acetyl)-1-oxa-4,9-diazaspiro[5.5]undecan-9-yl)methyl)phenethoxy)propanamide] the “M3 % inhibition @1 uM” value [1] was 95% and the “β2 % effect @1 uM” value (Adrenergic β2; 1 μM compound) was 108%.
For `O=C1COc2c(CCNCCN(C(=O)CCOCCc3cccc(CN4CCC5(CC4)CN(C(=O)[C@@H](O)C4CCCCC4)CCO5)c3)C3CCCCC3)ccc(O)c2N1` [Example 129, (S)-N-Cyclohexyl-3-(3-((4-(2-cyclohexyl-2-hydroxyacetyl)-1-oxa-4,9-diazaspiro[5.5]undecan-9-yl)methyl)phenethoxy)-N-(2-(2-(5-hydroxy-3-oxo-3,4-dihydro-2H-benzo[b][1,4]oxazin-8-yl)ethylamino)ethyl)propanamide], the inhibition at 1 µM [1] was 99% and the percent of formoterol maximum response at 1 µM (Adrenergic β2) was 110%.
`COCCOc1ccc(C(=O)N2CCOC3(CCN(Cc4cccc(CCOCCC(=O)N(CCNCCc5ccc(O)c6c5OCC(=O)N6)C5CCCCC5)c4)CC3)C2)cc1` [Example 173, N-Cyclohexyl-N-(2-(2-(5-hydroxy-3-oxo-3,4-dihydro-2H-benzo[b][1,4]oxazin-8-yl)ethylamino)ethyl)-3-(3-((4-(4-(2-methoxyethoxy)benzoyl)-1-oxa-4,9-diazaspiro[5.5]undecan-9-yl)methyl)phenethoxy)propanamide] was tested, and the inhibition at 1 µM [1] was 95% and the percent of formoterol maximum response at 1 µM (Adrenergic β2) was 82%.
With `O=C1COc2c(CCNCCN(C(=O)CCOCCc3cccc(CN4CCC5(CC4)CN(C(=O)c4cncc(Br)c4)CCO5)c3)C3CCCCC3)ccc(O)c2N1` [Example 102, 3-(3-((4-(5-Bromonicotinoyl)-1-oxa-4,9-diazaspiro[5.5]undecan-9-yl)methyl)phenethoxy)-N-cyclohexyl-N-(2-(2-(5-hydroxy-3-oxo-3,4-dihydro-2H-benzo[b][1,4]oxazin-8-yl)ethylamino)ethyl)propanamide] the inhibition at 1 µM [1] was 99% and the percent of formoterol maximum response at 1 µM (Adrenergic β2) was 108%.
`CCOc1ccccc1CC(=O)N1CCOC2(CCN(Cc3cccc(CCOCCC(=O)N(CCNCCc4ccc(O)c5c4OCC(=O)N5)C4CCCCC4)c3)CC2)C1` [Example 170, N-Cyclohexyl-3-(3-((4-(2-(2-ethoxyphenyl)acetyl)-1-oxa-4,9-diazaspiro[5.5]undecan-9-yl)methyl)phenethoxy)-N-(2-(2-(5-hydroxy-3-oxo-3,4-dihydro-2H-benzo[b][1,4]oxazin-8-yl)ethylamino)ethyl)propanamide] gave an inhibition at 1 µM [1] of 98% and a percent of formoterol maximum response at 1 µM (Adrenergic β2) of 112%.
Compound `O=C1COc2c(CCNCCN(C(=O)CCOCCc3cccc(CN4CCC5(CC4)CN(C(=O)c4ccc(-n6cccn6)nc4)CCO5)c3)C3CCCCC3)ccc(O)c2N1` [Example 112, 3-(3-((4-(6-(1H-Pyrazol-1-yl)nicotinoyl)-1-oxa-4,9-diazaspiro[5.5]undecan-9-yl)methyl)phenethoxy)-N-cyclohexyl-N-(2-(2-(5-hydroxy-3-oxo-3,4-dihydro-2H-benzo[b][1,4]oxazin-8-yl)ethylamino)ethyl)propanamide] has an inhibition at 1 µM [1] of 98% and a percent of formoterol maximum response at 1 µM (Adrenergic β2) of 105%.
With `O=C1COc2c(CCNCCN(C(=O)CCOCCc3cccc(CN4CCC5(CC4)CN(C(=O)c4cc(Br)c[nH]4)CCO5)c3)C3CCCCC3)ccc(O)c2N1` [Example 132, 3-(3-((4-(4-Bromo-1H-pyrrole-2-carbonyl)-1-oxa-4,9-diazaspiro[5.5]undecan-9-yl)methyl)phenethoxy)-N-cyclohexyl-N-(2-(2-(5-hydroxy-3-oxo-3,4-dihydro-2H-benzo[b][1,4]oxazin-8-yl)ethylamino)ethyl)propanamide] the inhibition at 1 µM [1] was 101% and the percent of formoterol maximum response at 1 µM (Adrenergic β2) was 96%.
